Results reported in patent US8709406B2, “Prevention and treatment of oxidative stress disorders by gluthathione and phase II detoxification enzymes” (Brassica Foundation for ChemoProtection Research, priority 2001, dated 2014).
Read-outs that look alike come from different tables or passages of the source.

System: ARPE-19 cells
Assay: Oxidant cytotoxicity (MTT viability, median effect analysis) and protection by 24 h sulforaphane pretreatment
Type: cell-based, human
Conditions: ARPE-19; for Dm of menadione: Example 3; for Dm of menadione / Dm (median effect concentration) of menadione / m (slope of median effect plot) for menadione: menadione 2 h; for Dm (median effect concentration) of tert-butyl hydroperoxide / m (slope of median effect plot) for tert-butyl hydroperoxide: tert-butyl hydroperoxide 16 h
Procedure: All experiments were performed in 96-well microliter plates. ARPE-19 and HaCaT cells were seeded at 10,000 cells per well and grown for 24 h before addition of sulforaphane, whereas L1210 cells (5,000 cells/well) were not incubated before sulforaphane treatment. Solutions of sulforaphane (5 mM) in dimethyl sulfoxide were diluted with the cognate culture medium to provide final inducer concentrations of 0.16-5.0 μM. The final DMSO concentrations were 0.1% by volume.
Tert-Butyl hydroperoxide (1 M) and 4-hydroxynonenal (25 mM) were dissolved in DMSO and diluted 1000-fold with serum-free medium before addition of serial dilutions to the microtiter plate wells. The final concentrations of DMSO were therefore less than 0.1% (by vol.). Menadione sodium bisulfite (0.5 M) and SIN-1 (0.5 M) were dissolved and added in PBS. ARPE-19 cells were exposed to menadione for 2 h and to tert-butyl hydroperoxide for 16 h, washed with PBS, and cell viability was determined by the MIT test. ARPE-19 cells were exposed to peroxynitrite for 2 h and 4-hydroxynonenal for 4 h, and the cells were then incubated in serum-free media for 22 and 20 h, respectively, washed with PBS, and cell viability was determined. The additional incubation periods were required for peroxynitrite and 4-hydroxynonenal to evoke maximal cytotoxicity.
Cell viability was determined by spectroscopic measurement of the reduction of MTT (Carmichael, J., DeGraff, W. G., Gazdar, A. F., Minna, J. D. & Mitchell, J. B. (1987) Cancer Res. 47, 936-942). The culture media were discarded after the designated incubation periods, the cells were washed three times with PBS by use of a microtiter plate washer (Ultrawash Plus, Dynex Technologies, Chantilly, Va.). Each well then received 150 μl of an MTT solution (0.5 mg/ml) in serum-free medium. The plates were incubated for 2 h at 37° C., the MTT solution was discarded, 100 μl of DMSO were added to each well, and the plates were shaken at 200 rpm on an orbital shaker for 5 min. The absorbances of the wells were determined at 555 nm with a microtiter plate reader (Spectra Max Plus, Molecular Devices, Sunnyvale, Calif.). The absorbance of reduced MIT was then compared at each inducer and oxidant concentration to that of untreated control cells that received only the vehicle in which sulforaphane (DMSO) and menadione (DMSO or PBS) were dissolved. In each experiment three identical 96-well plates were used and the means of the absorbance values, the standard deviations of these means, and their coefficients of variation were calculated.
Dose-effect analyses were performed according to the Median Effect Equation, by use of a computer program (Chou, T. C. & Hayball, M. (1996) CalcuSyn for Windows 3.1 and 95: multiple dose effect analyzer and manual for IBM-PC, Biosoft, Cambridge, U.K). The equation: fa/fu=[D/Dm]^m, where fa is the fraction of cells affected by the oxidant, fu is the fraction unaffected (i.e., 1-fa), D is the dose of oxidant required to produce the effect fa, Dm is the concentration of oxidant required to produce a 50% effect, i.e., when fa=fu, and the slope m is a measure of the sigmoidicity of the dose-response curve, and is therefore a measure of cooperativity. The results are analyzed by plotting log(fa/fu) with respect to log D of the oxidant. The computer program provides the slope (m) of the curves, and the goodness of fit (r^2) to linearity.

[1] = after sulforaphane 0.63 μM 24 h
[2] = after sulforaphane 1.25 μM 24 h
[3] = after sulforaphane 2.50 μM 24 h
[4] = after sulforaphane 5.00 μM 24 h

C[S+]([O-])CCCCN=C=S (stereo not drawn) [Sulforaphane]
m (slope of median effect plot) for 4-hydroxynonenal (4-hydroxynonenal 4 h, after sulforaphane 0.63 μM 24 h): 2.51
EC50 (4-hydroxynonenal 4 h, after sulforaphane 0.63 μM 24 h, read-out: Dm (median effect concentration) of 4-hydroxynonenal): 14.1 µM
m (slope of median effect plot) for 4-hydroxynonenal (4-hydroxynonenal 4 h, after sulforaphane 1.25 μM 24 h): 2.78
EC50 (4-hydroxynonenal 4 h, after sulforaphane 1.25 μM 24 h, read-out: Dm (median effect concentration) of 4-hydroxynonenal): 25.8 µM
m (slope of median effect plot) for 4-hydroxynonenal (4-hydroxynonenal 4 h, after sulforaphane 2.50 μM 24 h): 2.51
EC50 (4-hydroxynonenal 4 h, after sulforaphane 2.50 μM 24 h, read-out: Dm (median effect concentration) of 4-hydroxynonenal): 26.8 µM
Dm of menadione (after sulforaphane 0.625 μM 24 h): 69.2 µM
Dm of menadione (after sulforaphane 2.5 μM 24 h): 94.5 µM
degree of protection against different oxidants (comparable concentrations of sulforaphane): 2- to 3 fold
Dm (median effect concentration) of menadione [1]: 98.6 µM
m (slope of median effect plot) for menadione [1]: 3.69
Dm (median effect concentration) of menadione [2]: 110 µM
m (slope of median effect plot) for menadione [2]: 3.49
Dm (median effect concentration) of menadione (after sulforaphane 1.25 μM 24 h, listed as sulforaphane): 109.9 µM
Dm (median effect concentration) of menadione [3]: 123 µM
m (slope of median effect plot) for menadione [3]: 3.58
Dm (median effect concentration) of menadione (after sulforaphane 2.50 μM 24 h, listed as sulforaphane): 122.9 µM
Dm (median effect concentration) of menadione [4]: 134 µM
m (slope of median effect plot) for menadione [4]: 3.12
Dm (median effect concentration) of menadione (after sulforaphane 5.00 μM 24 h, listed as sulforaphane): 134.2 µM
m (slope of median effect plot) for peroxynitrite (peroxynitrite (from SIN-1) 2 h, after sulforaphane 0.63 μM 24 h): 6.30
EC50 (peroxynitrite (from SIN-1) 2 h, after sulforaphane 0.63 μM 24 h, read-out: Dm (median effect concentration) of peroxynitrite): 2780 µM
m (slope of median effect plot) for peroxynitrite (peroxynitrite (from SIN-1) 2 h, after sulforaphane 1.25 μM 24 h): 6.19
EC50 (peroxynitrite (from SIN-1) 2 h, after sulforaphane 1.25 μM 24 h, read-out: Dm (median effect concentration) of peroxynitrite): 2820 µM
m (slope of median effect plot) for peroxynitrite (peroxynitrite (from SIN-1) 2 h, after sulforaphane 2.50 μM 24 h): 6.62
EC50 (peroxynitrite (from SIN-1) 2 h, after sulforaphane 2.50 μM 24 h, read-out: Dm (median effect concentration) of peroxynitrite): 2890 µM
time for which protection against menadione toxicity is maintained or exceeded after 24-h induction (sulforaphane 0.625 and 2.5 μM 24 h, then serum-free culture): at least 3 days
Dm (median effect concentration) of tert-butyl hydroperoxide [1]: 140 µM
m (slope of median effect plot) for tert-butyl hydroperoxide [1]: 2.17
Dm (median effect concentration) of tert-butyl hydroperoxide [2]: 163 µM
m (slope of median effect plot) for tert-butyl hydroperoxide [2]: 1.79
Dm (median effect concentration) of tert-butyl hydroperoxide [3]: 165 µM
m (slope of median effect plot) for tert-butyl hydroperoxide [3]: 1.26
